Assay results taken from ChEMBL document CHEMBL4052718, “Stereospecific inhibition of nitric oxide production in macrophage cells by flavanonols: Synthesis and the structure-activity relationship. Part 2” (Bioorg Med Chem, 2017).

Key:
[1] = Cytotoxicity against LPS-stimulated […] cells assessed as cell viability pretreated for 2 hrs followed by LPS-stimulation after 16 hrs by alamar blue assay relative to control; assay type: cell-based; design: concentration or dose not given beside the values; conditions: LPS-stimulated RAW264.7 cells; read-out: Activity
RAW264.7 [2] = assay: Inhibition of LPS-stimulated nitric oxide production in […] cells at 100 uM pretreated for 2 hrs followed by LPS-stimulation after 16 hrs by Griess assay relative to control; assay type: functional; conditions: Mus musculus
RAW264.7 [3] = assay: Inhibition of LPS-stimulated nitric oxide production in […] cells pretreated for 2 hrs followed by LPS-stimulation after 16 hrs by Griess assay; assay type: functional, cell-based; conditions: Mus musculus
RAW264.7 [4] = assay: Cytotoxicity against LPS-stimulated […] cells assessed as reduction in cell viability at 100 uM pretreated for 2 hrs followed by LPS-stimulation after 16 hrs by alamar blue assay; assay type: cell-based; conditions: raw264.7, 16 h

| Structure (SMILES) | IC50 (RAW264.7 [3]) [µM] | viability at 16 h [1] [%] | inhibition at 100 µM (RAW264.7 [2]) [%] | Activity (RAW264.7 [4]) |
| --- | --- | --- | --- | --- |
| O=C1c2c(O)cccc2O[C@H](c2cccc(O)c2O)[C@H]1O | 77.7 | ≥ 100 |  | Non-Toxic |
| O=C1c2ccc(O)c(O)c2O[C@H](c2cccc(O)c2O)[C@H]1O | 17 | ≥ 100 | 95 | Non-Toxic |
| COc1cc2c(cc1OC)C(=O)[C@@H](O)[C@H](c1cccc(O)c1O)O2 | > 100 | ≥ 100 |  | Non-Toxic |
| COc1ccc2c(c1)O[C@H](c1cccc(O)c1O)[C@@H](O)C2=O | 24.6 | ≥ 100 |  | Non-Toxic |
| COc1ccc2c(c1O)O[C@H](c1cccc(O)c1O)[C@@H](O)C2=O | 49.7 | ≥ 100 | 93 | Non-Toxic |
| COc1cc(OC)c2c(c1)O[C@H](c1cccc(O)c1O)[C@@H](O)C2=O |  |  | 70 |  |
| O=C1c2ccc(O)c(O)c2O[C@@H](c2cccc(O)c2O)[C@@H]1O | > 100 | ≥ 100 | 0 | Non-Toxic |
| COc1cc2c(cc1OC)C(=O)[C@H](O)[C@@H](c1cccc(O)c1O)O2 | 50.3 | ≥ 100 | 93 | Non-Toxic |
| COc1cc(OC)c2c(c1)OC(c1cccc(O)c1O)C(O)C2=O (racemic) | 57.6 | ≥ 100 | 58 | Non-Toxic |
| Cc1cc2c(cc1C)C(=O)C(O)C(c1cccc(O)c1O)O2 (racemic) | 20.7 | ≥ 100 |  | Non-Toxic |
| COc1ccc2c(c1O)O[C@@H](c1cccc(O)c1O)[C@H](O)C2=O | 88.5 | ≥ 100 |  | Non-Toxic |
| COc1ccc2c(c1)O[C@@H](c1cccc(O)c1O)[C@H](O)C2=O | 30.3 | ≥ 100 |  | Non-Toxic |

Now from value to molecule, other results behind:

| IC50 (RAW264.7 [3]) [µM] | Structure (SMILES) | viability at 16 h [1] [%] | inhibition at 100 µM (RAW264.7 [2]) [%] | Activity (RAW264.7 [4]) |
| --- | --- | --- | --- | --- |
| 70.7 | O=C1c2ccc(O)cc2O[C@H](c2cccc(O)c2O)[C@H]1O | ≥ 100 | 70 | Non-Toxic |
| 45.3 | Cc1ccc2c(c1)C(=O)C(O)C(c1cccc(O)c1O)O2 (racemic) | ≥ 100 |  | Non-Toxic |
| > 100 | O=C1c2ccccc2O[C@@H](c2cccc(O)c2O)[C@@H]1O | ≥ 100 |  | Non-Toxic |
| > 100 | O=C1c2c(O)cccc2O[C@@H](c2cccc(O)c2O)[C@@H]1O | ≥ 100 |  | Non-Toxic |
| > 100 | O=C1c2cc(O)ccc2O[C@@H](c2cccc(O)c2O)[C@@H]1O | ≥ 100 |  | Non-Toxic |
| 31.8 | Cc1ccc2c(c1)OC(c1cccc(O)c1O)C(O)C2=O (racemic) | ≥ 100 |  | Non-Toxic |
| > 100 | COc1ccc2c(c1)C(=O)[C@@H](O)[C@H](c1cccc(O)c1O)O2 | ≥ 100 |  | Non-Toxic |
| > 100 | O=C1c2ccc(O)cc2O[C@@H](c2cccc(O)c2O)[C@@H]1O | ≥ 100 |  | Non-Toxic |
| > 100 | O=C1c2ccccc2O[C@H](c2cccc(O)c2O)[C@H]1O | ≥ 100 |  | Non-Toxic |
| > 100 | O=C1c2cc(O)ccc2O[C@H](c2cccc(O)c2O)[C@H]1O | ≥ 100 |  | Non-Toxic |
| > 100 | COc1ccc2c(c1)C(=O)[C@H](O)[C@@H](c1cccc(O)c1O)O2 | ≥ 100 |  | Non-Toxic |
